The source of these data is US8097733B2, “Pyrazole derivatives as 5-LO-inhibitors” (Pfizer Inc., priority 2007, dated 2012).

SMILES strings stand for the structures.

The IC50 is the concentration that gives 50% inhibition. Broadly, the inhibition is the percentage by which the read-out fell short of the control. Read a low inhibition as little suppression.

Test [1] deals with human whole blood (leukotriene and prostaglandin levels). As to the kind of experiment: Eicosanoid production from human whole blood. As to conditions: human whole blood stimulated with calcium ionophore A23187 and arachidonic acid; ELISA. In kind it is cell-based. The gist of the method:
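Pooled heparinized whole blood from healthy or asthmatic donors was preincubated with compound for 10 min at room temperature, with 2.5% DMSO final. It was stimulated with calcium ionophore A23187 plus arachidonic acid (30 μM) in 60% ethanol for 15 min at 37 °C. Plasma leukotrienes and prostaglandins were measured by ELISA.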
(ELISA stands for enzyme-linked immunosorbent assay.)

Test [2] concerns eicosanoid production in the rat air pouch. In words: Carrageenan-induced eicosanoid production in the rat air pouch. As to conditions: po, male Lewis rats, 3 mpk by gavage 1 hour prior to carrageenan. The test is classed as in vivo. As to the method:
Carrageenan-Induced Eicosanoid Production in the Rat Air Pouch:
Male Lewis rats (175-200 g), Charles River Laboratories, Wilmington, Mass.) were used in the study. Air pouches were produced by subcutaneous injection of 20 ml of sterile air into the intrascapular area of the back. Pouches were allowed to develop for 1 day. Animals (6 per group) were fasted with free access to water for 16 to 24 hours prior to drug administration. Drugs or vehicle were administered by gavage 1 hour prior to injection of 2 ml of a 1% suspension of carrageenan (FMC BioPolymer, Philadelphia, Pa., Cat. # GP209-NF) dissolved in saline into the pouch. At 3 hours post-carrageenan injection, 1 ml of 50 μg/ml calcium ionophore in saline (A23187, Sigma Chemical Co, St. Louis, M, Cat. #C-7522) was injected into the pouch and the pouch fluid collected 10 minutes later by lavage. The fluid was centrifuged at 3500 rpm for 10 minutes at 4° C., and the supernatants were collected for analysis. Leukotriene and prostaglandin levels were quantitated by ELISA according to the manufacturer's directions (Cayman Chemical Company, Ann Arbor, Mi).

For another test, the target named is T1, recombinant human 5-LOX (Homo sapiens, UniProt P09917).
T1 sequence (P09917 1-674): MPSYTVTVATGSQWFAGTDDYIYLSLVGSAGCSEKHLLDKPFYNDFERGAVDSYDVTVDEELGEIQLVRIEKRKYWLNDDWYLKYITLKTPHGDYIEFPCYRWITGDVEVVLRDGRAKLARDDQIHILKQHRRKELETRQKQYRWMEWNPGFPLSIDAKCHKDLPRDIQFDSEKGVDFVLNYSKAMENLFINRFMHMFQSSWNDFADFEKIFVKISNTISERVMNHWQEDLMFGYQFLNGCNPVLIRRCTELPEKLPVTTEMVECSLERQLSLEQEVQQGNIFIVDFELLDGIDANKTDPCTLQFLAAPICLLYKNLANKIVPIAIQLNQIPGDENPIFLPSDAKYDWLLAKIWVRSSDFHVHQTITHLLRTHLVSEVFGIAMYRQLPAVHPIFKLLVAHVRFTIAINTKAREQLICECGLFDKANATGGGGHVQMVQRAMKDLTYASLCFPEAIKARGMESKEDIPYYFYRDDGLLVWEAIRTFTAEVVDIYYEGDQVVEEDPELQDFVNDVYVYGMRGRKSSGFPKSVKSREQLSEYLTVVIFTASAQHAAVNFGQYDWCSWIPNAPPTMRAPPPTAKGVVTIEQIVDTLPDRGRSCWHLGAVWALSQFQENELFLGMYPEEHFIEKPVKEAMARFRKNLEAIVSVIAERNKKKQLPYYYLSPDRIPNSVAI
As to the kind of experiment: Fluorescence Intensity 5-LOX Enzyme Assay. In kind it is biochemical. As to conditions: crude lysate of recombinant human 5-LOX; highest inhibitor concentration tested typically 25 μM. An outline of the steps:
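Crude lysate enzyme with H2DCFDA 10 μM (5 min dye pre-incubation), inhibitor pre-incubated 10 min; reaction started with 3 μM arachidonic acid plus 10 μM ATP in Tris pH 7.5, CaCl2, EDTA, 20 min at room temperature, acetonitrile stop. Fluorescein fluorescence; 7-point 4-parameter IC50, top 25 μM, 2.5% DMSO.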

In the case of `C[C@H]1C[C@@](C#N)(c2cc(F)cc(Sc3ccc(-c4ccnn4C)cc3)c2)CCO1` [27(2), (2S,4R)-4-(3-fluoro-5-(4-(1-methyl-1H-pyrazol-5-yl)phenylthio)phenyl)-2-methyl-tetrahydro-2H-pyran-4-carbonitrile], the results for the half-inhibitory concentration (IC50) (in test [1]; on recombinant human 5-LOX) were 123 nM and 331 nM, respectively. In addition, the inhibition at 3 mg/kg in test [2] came out at 100%.
With `C[C@H]1C[C@@](C#N)(c2cccc(Sc3ccc(-c4ccnn4C)cc3)c2F)CCO1` [29(2), (2S,4R)-4-(2-fluoro-3-(4-(1-methyl-1H-pyrazol-5-yl)phenylthio)phenyl)-2-methyl-tetrahydro-2H-Pyran-4-carbonitrile], the IC50 in test [1] came out at 62.5 nM; at recombinant human 5-LOX, 30 nM. This molecule showed an inhibition at 3 mg/kg in test [2] of 100%.
The corresponding values for `C[C@H]1C[C@@](C#N)(c2cccc(Sc3ccc(-c4ccnn4C)c(F)c3)c2)CCO1` [30(2), (2S,4R)-4-(3-(3-fluoro-4-(1-methyl-1H-pyrazol-5-yl)phenylthio)phenyl)-2-methyl-tetrahydro-2H-pyran-4-carbonitrile] are 55.7 nM, 113 nM and 95%.
The corresponding values for `C[C@H]1C[C@@](C#N)(c2cccc(Sc3ccc(-c4ccnn4C)c(F)c3)c2F)CCO1` [31(1), (2S,4R)-4-(2-fluoro-3-(3-fluoro-4-(1-methyl-1H-pyrazol-5-yl)phenylthio)phenyl)-2-methyl-tetrahydro-2H-pyran-4-carbonitrile] are 59.8 nM, 21.5 nM and 96%.
Consider `C[C@H]1C[C@@](C#N)(c2cc(F)cc(Sc3ccc(-c4ccnn4C)c(F)c3)c2)CCO1` [32(1), (2S,4R)-4-(3-fluoro-5-(3-fluoro-4-(1-methyl-1H-pyrazol-5-yl)phenylthio)phenyl)-2-methyl-tetrahydro-2H-pyran-4-carbonitrile], for which the IC50 in test [1] turned out to be 107 nM; at recombinant human 5-LOX, 151 nM. In test [2], this molecule came in with an inhibition at 3 mg/kg of 93%.
The matching figures for `C[C@H]1C[C@@](C#N)(c2cccc(Sc3cnc(Oc4ccnn4C)c(Cl)c3)c2F)CCO1` [52(4), (2S,4R)-4-(3-(5-chloro-6-(1-methyl-1H-pyrazol-5-yloxy)pyridin-3-ylthio)-2-fluorophenyl)-2-methyl-tetrahydro-2H-pyran-4-carbonitrile]: 118 nM, 29.1 nM and 97%.
The corresponding values for `Cc1nccn1-c1ccc(Sc2cccc(C3(C(N)=O)CCOCC3)c2)cc1` [(d), 4-(3-(4-(2-methyl-1H-imidazol-1-yl)phenylthio)phenyl)-tetrahydro-2H-pyran-4-carboxamide, reference compound] are 275 nM, 877 nM and 73.1%.
The matching figures for `Cn1nccc1-c1ccc(Sc2cccc(C3(C(N)=O)CCOCC3)c2)cc1Cl` [Example 1, 4-(3-{[3-chloro-4-(1-methyl-1H-pyrazol-5-yl)phenyl]thio}phenyl)tetrahydro-2H-pyran-4-carboxamide]: 76.5 nM, 89.7 nM and 50.5%.
For `Cn1nccc1-c1ccc(Sc2cccc(C3(C(N)=O)CCOCC3)c2)cc1C#N` [Example 2, 4-(3-{[3-Cyano-4-(1-methyl-1H-pyrazol-5-yl)phenyl]thio}phenyl)tetrahydro-2H-pyran-4-carboxamide], the half-inhibitory concentration (IC50) in test [1] amounted to 196 nM; at recombinant human 5-LOX, 660 nM. The inhibition at 3 mg/kg in test [2] came out at 0%.
On to `CNC(=O)C1(c2cccc(Sc3ccc(-c4ccnn4C)cc3)c2)CCOCC1` [Example 10, N-Methyl-4-(3-{[4-(1-methyl-1H-pyrazol-5-yl)phenyl]thio}phenyl)tetrahydro-2H-pyran-4-carboxamide], for which the results for the half-inhibitory concentration (IC50) (in test [1]; on recombinant human 5-LOX) were 294 nM and 287 nM, respectively. The molecule also returned an inhibition at 3 mg/kg in test [2] of 5%.
Turning to `Cn1nccc1-c1ncc(Sc2cccc(C3(C(N)=O)CCOCC3)c2)cc1Cl` [Example 11, 4-(3-{[5-chloro-6-(1-methyl-1H-pyrazol-5-yl)pyridin-3-yl]thio}phenyl)tetrahydro-2H-pyran-4-carboxamide], the IC50 was found to be 260 nM in test [1] and 386 nM on recombinant human 5-LOX. The inhibition at 3 mg/kg in test [2] was 69%.
Take `Cn1nccc1-c1ccc(Sc2cccc(C3(C(N)=O)CCOCC3)c2)c(Cl)c1` [Example 13, 4-(3-{[2-chloro-4-(1-methyl-1H-pyrazol-5-yl)phenyl]thio}phenyl)tetrahydro-2H-pyran-4-carboxamide]: the IC50 is 119 nM in test [1] and 54 nM at recombinant human 5-LOX. The molecule further registered an inhibition at 3 mg/kg in test [2] of 1%.
As to `Cn1nccc1-c1ccc(Sc2cc(F)cc(C3(C(N)=O)CCOCC3)c2)cc1` [Example 15, 4-(3-fluoro-5-{[4-(1-methyl-1H-pyrazol-5-yl)phenyl]thio}phenyl)tetrahydro-2H-pyran-4-carboxamide], the results for the IC50 (in test [1]; on recombinant human 5-LOX) were 365 nM and 264 nM, respectively. Also, in test [2], at 3 mg/kg the inhibition was 68.5%.
The matching figures for `CNC(=O)C1(c2cccc(Sc3ccc(-c4ccnn4C)cc3Cl)c2)CCOCC1` [Example 16, 4-(3-{[2-chloro-4-(1-methyl-1H-pyrazol-6-yl)phenyl]thio}phenyl)-N-methyltetrahydro-2H-pyran-4-carboxamide]: 331 nM, 67.9 nM and 0%.
The matching figures for `CNC(=O)C1(c2cccc(Sc3ccc(-c4ccnn4C)cc3)c2F)CCOCC1` [Example 17, 4-(2-fluoro-3-{[4-(1-methyl-1H-pyrazol-5-yl)phenyl]thio}phenyl)-N-methyl-tetrahydro-2H-pyran-4-carboxamide]: 962 nM, 146 nM and 83%.
Turning to `CNC(=O)C1(c2cc(F)cc(Sc3ccc(-c4ccnn4C)cc3)c2F)CCOCC1` [Example 19, 4-(2,5-difluoro-3-{[4-(1-methyl-1H-pyrazol-5-yl)phenyl]thio}phenyl)-N-methyltetrahydro-2H-pyran-4-carboxamide], the concentration for half-maximal inhibition (IC50) in test [1] amounted to 996 nM; at recombinant human 5-LOX, 114 nM. Testing at 3 mg/kg in test [2] gave an inhibition of 95.3%.
As to `Cn1nccc1-c1ccc(Sc2c(F)ccc(C3(C(N)=O)CCOCC3)c2F)cc1` [Example 20, 4-(2,4-difluoro-3-{[4-(1-methyl-1H-pyrazol-5-yl)phenyl]thio}phenyl)-tetrahydro-2H-pyran-4-carboxamide], the IC50 in test [1] stood at 448 nM; at recombinant human 5-LOX, 225 nM. The inhibition at 3 mg/kg in test [2] was 91%.
The matching figures for `Cn1nccc1-c1ccc(Sc2cc(C3(C(N)=O)CCOCC3)ccc2F)cc1` [Example 21, 4-(4-fluoro-3-(4-(1-methyl-1H-pyrazol-5-yl)phenylthio)phenyl)-tetrahydro-2H-pyran-4-carboxamide]: 859 nM, 567 nM and 96%.
The corresponding values for `C[C@H]1C[C@@](C(N)=O)(c2cccc(Sc3ccc(-c4ccnn4C)cc3)c2)CCO1` [Example 22, (2S,4R)-2-methyl-4-(3-(4-(1-methyl-1H-pyrazol-5-yl)phenylthio)phenyl)-tetrahydro-2H-pyran-4-carboxamide] are 185 nM, 16.4 nM and 99.5%.
For `Cn1nccc1-c1ccc([S+]([O-])c2cccc(C3(C(N)=O)CCOCC3)c2)cc1` (centres unmarked) [Example 50, 4-(3-{[4-(1-methyl-1H-pyrazol-5-yl)phenyl]sulfinyl}phenyl)tetrahydro-2H-pyran-4-carboxamide], at 3 mg/kg the inhibition in test [2] was 12%. Also, the 50% inhibitory concentration (IC50) at recombinant human 5-LOX is at least 25000 nM.
